According to ChEMBL document CHEMBL1148442, “Design, synthesis, and evaluation of metabolism-based analogues of haloperidol incapable of forming MPP+-like species” (J Med Chem, 2004):

Experiments:
[1] = target: D(2) dopamine receptor (Homo sapiens) (UniProt P14416)
Description: Displacement of [3H]spiperone from human Dopamine receptor D2

[2] = target: T1, D(4) dopamine receptor (Homo sapiens) (UniProt P21917)
T1 sequence (whole entry): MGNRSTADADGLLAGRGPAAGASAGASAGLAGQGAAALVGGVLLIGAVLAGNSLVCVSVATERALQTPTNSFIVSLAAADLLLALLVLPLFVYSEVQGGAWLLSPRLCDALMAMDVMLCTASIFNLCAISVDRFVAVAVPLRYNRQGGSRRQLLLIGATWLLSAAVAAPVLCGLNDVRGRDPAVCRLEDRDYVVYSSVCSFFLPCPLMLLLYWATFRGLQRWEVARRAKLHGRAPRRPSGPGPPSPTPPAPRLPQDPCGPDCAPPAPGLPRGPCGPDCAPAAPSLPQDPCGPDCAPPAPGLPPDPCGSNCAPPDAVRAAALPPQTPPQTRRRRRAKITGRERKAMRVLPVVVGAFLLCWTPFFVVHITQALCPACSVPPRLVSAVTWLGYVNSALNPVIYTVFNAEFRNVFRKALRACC
Description: Displacement of [3H]spiperone from human Dopamine receptor D4

[3] = target: D(3) dopamine receptor (Homo sapiens) (UniProt P35462)
Chain of D(3) dopamine receptor (Homo sapiens) (P35462 whole entry): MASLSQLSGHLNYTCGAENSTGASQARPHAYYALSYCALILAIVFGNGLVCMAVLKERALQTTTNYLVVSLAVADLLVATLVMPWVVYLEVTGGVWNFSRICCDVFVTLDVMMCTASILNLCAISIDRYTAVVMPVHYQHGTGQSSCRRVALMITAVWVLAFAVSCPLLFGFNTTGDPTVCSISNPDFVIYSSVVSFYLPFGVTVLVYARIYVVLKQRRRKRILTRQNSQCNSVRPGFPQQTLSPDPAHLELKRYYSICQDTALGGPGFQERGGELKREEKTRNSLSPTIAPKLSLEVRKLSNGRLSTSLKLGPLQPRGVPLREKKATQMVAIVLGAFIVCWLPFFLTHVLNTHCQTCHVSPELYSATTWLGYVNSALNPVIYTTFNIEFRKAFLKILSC
Description: Displacement of [3H]7-OH-DPAT from human Dopamine receptor D3

Chain of D(2) dopamine receptor (Homo sapiens) (P14416 whole entry): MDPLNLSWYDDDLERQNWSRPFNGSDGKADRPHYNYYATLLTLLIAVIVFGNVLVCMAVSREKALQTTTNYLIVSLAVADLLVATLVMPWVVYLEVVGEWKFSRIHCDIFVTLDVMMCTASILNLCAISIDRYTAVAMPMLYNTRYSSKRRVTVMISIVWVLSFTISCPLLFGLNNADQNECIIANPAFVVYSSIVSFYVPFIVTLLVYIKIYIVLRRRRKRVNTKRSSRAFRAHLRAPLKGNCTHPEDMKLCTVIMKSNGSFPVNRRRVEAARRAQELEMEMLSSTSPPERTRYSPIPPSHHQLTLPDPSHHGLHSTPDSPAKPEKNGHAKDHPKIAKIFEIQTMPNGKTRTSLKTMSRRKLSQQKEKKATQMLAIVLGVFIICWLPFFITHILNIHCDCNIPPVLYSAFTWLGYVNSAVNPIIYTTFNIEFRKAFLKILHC

| Structure (SMILES) | pKi [1] | pKi [2] | pKi [3] |
| --- | --- | --- | --- |
| O=C(CCCN1CCC(c2ccc(Cl)cc2)C1)c1ccc(F)cc1 (stereo not given) | 7.81 | 7.82 | – |
| CN(CCCC(=O)c1ccc(F)cc1)CCCC(O)c1ccc(Cl)cc1 (stereo not given) | – | 6.72 | 6.79 |
| O=C(CCCN1CCCC(O)(c2ccc(Cl)cc2)CC1)c1ccc(F)cc1 (stereo not given) | 8.96 | – | – |
| O=C(CCCN1CCC(CO)(c2ccc(Cl)cc2)C1)c1ccc(F)cc1 (stereo not given) | 7.36 | 7.62 | 6.78 |
| O=C(CCCN1CCC(CO)(c2ccc(Cl)cc2)CC1)c1ccc(F)cc1 | 7.81 | 7.11 | 6.96 |
| O=C(CCC[n+]1ccc(-c2ccc(Cl)cc2)cc1)c1ccc(F)cc1 | < 6 | < 6 | < 6 |
| O=C(CCCN1CCC(CCO)(c2ccc(Cl)cc2)C1)c1ccc(F)cc1 (stereo not given) | 7.64 | 6.71 | 7.49 |
| O=C(CCCN1CCC(C(O)c2ccc(Cl)cc2)CC1)c1ccc(F)cc1 (stereo not given) | 7.62 | 6.91 | 7.11 |
| O=C(CCCN1CCC(c2ccc(Cl)cc2)CC1)c1ccc(F)cc1 | – | 7.59 | 7.34 |
| O=C(CCCN1CCC(O)(Cc2ccc(Cl)cc2)CC1)c1ccc(F)cc1 | 8.1 | 7.23 | 8.05 |
